Legend:
Format in all cases: cell-based
[1] = system: CNRIP1 mRNA expression in colon cancer cell lines; assay: Quantitative gene expression of CNRIP1 in colon cancer cell lines before and after epigenetic drug treatment; details: for increase in relative expression of CNRIP1, the two doses compared: low dose 1 uM versus high dose 10 uM, 72 h, six colon cancer cell lines; for relative expression of CNRIP1 (fold change, untreated sample as calibrator): six colon cancer cell lines HT29, SW48, HCT15, SW480, RKO, LS1034, AZA 1 or 10 uM 72 h, TSA 0.5 μM 12 h, combination 1 μM AZA 72 h + 0.5 μM TSA last 12 h
Description: (§1) Gene expression was measured in 6 colon cancer cell lines before and after treatment with epigenetic drugs. The relative expression levels of SPG20, INA and CNRIP1 in the colon cancer cell lines (n=6) was measured. […] The mean expression of ACTB and GUSB was used as endogenous control. TaqMan real-time fluorescence detection (Applied Biosystems, Foster city, CA) was used to quantify mRNA levels in the colon cancer cell lines, as previously described [Gibson et al. and Heid et al.]. cDNA was generated from five μg total RNA using a High-Capacity cDNA Archive kit (Applied Biosystems), including random primers according to the manufacturers' protocol. cDNA from the genes of interest (SPG20, INA and CNRIP1) and the endogenous controls (ACTB and GUSB) were amplified separately by the 7900HT Sequence Detection System (Applied Biosystems) following the protocol recommended by supplier. All samples were analyzed in triplicates. The expression levels were calculated as fold changes using the […] method and the untreated sample as a calibrator. In order to adjust for the possibly variable amounts of cDNA input in each PCR, we normalized the expression quantity of the target genes with the housekeeping genes ACTB and GUSB. Six colon cancer cell lines, HCT15, HT29, SW48, SW480, RKO and LS1034 were subjected to treatment with the demethylating drug 5-aza-2'deoxycytidine (1 μM for 72 h and 10 uM for 72 h), the histone deacetylase inhibitor trichostatin A (0.5 μM for 12 h) and a combination of both (1 μM 5-aza-2'deoxycytidine for 72 h, 0.5 μM trichostatin A added the last 12 h).

[2] = system: MAL mRNA expression in colon cancer cell lines; assay: Real-time quantitative gene expression of MAL in colon cancer cell lines after drug treatment
Description: Six colon cancer cell lines, HCT15, HT29, SW48, SW480, RKO and LS1034 were subjected to treatment with the demethylating drug 5-aza-2′deoxycytidine (1 μM for 72 h and 10 uM for 72 h), the histone deacetylase inhibitor trichostatin A (0.5 μM for 12 h) and a combination of both (1 μM 5-aza-2′deoxycytidine for 72 h, 0.5 μM trichostatin A added the last 12 h). Total RNA was extracted from cell lines (n=46), tumours (n=16), and normal tissue (n=3) using Trizol (Invitrogen, Carlsbad, Calif., USA) and the RNA concentration was determined using ND-1000 Nanodrop (NanoDrop Technologies, Wilmington, Del., USA). For each sample, total RNA was converted to cDNA using a High-Capacity cDNA Archive kit (Applied Biosystems), including random primers. MAL (Hs00242749_m1 and Hs00360838_m1) and the endogenous controls ACTB (Hs99999903_m1) and GUSB (Hs99999908_m1) were amplified separately in 96 well fast plates following the recommended protocol (Applied Biosystems), and the real time quantitative gene expression was measured by the 7900HT Sequence Detection System (Applied Biosystems). All samples were analyzed in triplicate, and the median value was used for data analysis. The human universal reference RNA (containing a mixture of RNA from ten different cell lines; Stratagene) was used to generate a standard curve, and the resulting quantitative expression levels of MAL were normalized against the mean value of the two endogenous controls.

[3] = system: MAL promoter methylation in colon cancer cell lines; assay: Methylation-specific PCR (MSP) of the MAL promoter in colon cancer cell lines after drug treatment; details: colon cancer cell lines HT29 and HCT15 (FIG. 9)
Description: Six colon cancer cell lines, HCT15, HT29, SW48, SW480, RKO and LS1034 were subjected to treatment with the demethylating drug 5-aza-2′deoxycytidine (1 μM for 72 h and 10 uM for 72 h), the histone deacetylase inhibitor trichostatin A (0.5 μM for 12 h) and a combination of both (1 μM 5-aza-2′deoxycytidine for 72 h, 0.5 μM trichostatin A added the last 12 h). DNA from primary tumours and normal mucosa samples was bisulphite treated as previously described. DNA from colon cancer cell lines was bisulphite treated using the EpiTect bisulphite kit (Qiagen Inc., Valencia, Calif., USA). The promoter methylation status of all genes was analyzed by methylation-specific polymerase chain reaction (MSP) using the HotStarTaq DNA polymerase (Qiagen). All results were confirmed with a second independent round of MSP. Human placental DNA (Sigma Chemical Co, St. Louis, Mo., USA) treated in vitro with SssI methyltransferase (New England Biolabs Inc., Beverly, Mass., USA) was used as a positive control for the methylated MSP reaction, whereas DNA from normal lymphocytes was used as a positive control for unmethylated alleles. Water was used as a negative control in both reactions.

[4] = system: INA mRNA expression in colon cancer cell lines; assay: Quantitative gene expression of INA in colon cancer cell lines before and after epigenetic drug treatment; details: for increase in relative expression of INA, the two doses compared: low dose 1 uM versus high dose 10 uM, 72 h, six colon cancer cell lines; for relative expression of INA (fold change, untreated sample as calibrator): six colon cancer cell lines HT29, SW48, HCT15, SW480, RKO, LS1034, AZA 1 or 10 uM 72 h, TSA 0.5 μM 12 h, combination 1 μM AZA 72 h + 0.5 μM TSA last 12 h
Description: as §1

[5] = system: SPG20 mRNA expression in colon cancer cell lines; assay: Quantitative gene expression of SPG20 in colon cancer cell lines before and after epigenetic drug treatment; details: for increase in relative expression of SPG20, the two doses compared: low dose 1 uM versus high dose 10 uM, 72 h, six colon cancer cell lines; for relative expression of SPG20 (fold change, untreated sample as calibrator): six colon cancer cell lines HT29, SW48, HCT15, SW480, RKO, LS1034, AZA 1 or 10 uM 72 h, TSA 0.5 μM 12 h, combination 1 μM AZA 72 h + 0.5 μM TSA last 12 h
Description: as §1

[6] = listed as 5-aza-2′deoxycytidine
[7] = colon cancer cell lines HT29 and HCT15 (FIG. 9)

Compound | increase in relative expression of CNRIP1, the two doses compared [1] | increase in relative expression of CNRIP1, the two doses compared [1, 6] | relative expression of CNRIP1 (fold change, untreated sample as calibrator) [1] | MAL mRNA expression ([2]; HCT15 cells) | MAL mRNA expression ([2]; HT29 cells) | MAL mRNA expression [2, 7] | promoter methylation of MAL (MSP) [3] | increase in relative expression of INA, the two doses compared [4] | increase in relative expression of INA, the two doses compared [4, 6] | relative expression of INA (fold change, untreated sample as calibrator) [4] | increase in relative expression of SPG20, the two doses compared [5] | increase in relative expression of SPG20, the two doses compared [5, 6] | relative expression of SPG20 (fold change, untreated sample as calibrator) [5]
Nc1ncn([C@H]2C[C@H](O)[C@@H](CO)O2)c(=O)n1 [5-aza-2′-deoxycytidine] | comparable effects | comparable increases | Up-regulated mRNA expression | more moderate levels | high expression | up-regulated mRNA expression | Decreased promoter methylation | comparable effects | comparable increases | Up-regulated mRNA expression | comparable effects | comparable increases | Up-regulated mRNA expression
CC(/C=C/C(=O)NO)=C\[C@@H](C)C(=O)c1ccc(N(C)C)cc1 [trichostatin A] |  |  | did not increase the gene expression |  |  | did not increase MAL expression |  |  |  | did not increase the gene expression |  |  | did not increase the gene expression

Reference: patent publication US20150176079A1, “MARKERS FOR CANCER” (OSLO UNIVERSITETSSYKEHUS HF, priority 2007, published 2015)
